Measured values: patent US12077503B2, “Substituted cyclic amides and their use as herbicides” (FMC CORPORATION, priority 2015, dated 2024)

Tests used:
Format in all cases: in vivo
[1] = test system: giant foxtail (Setaria faberi); assay: Test G Pre-Emergence Protocol; conditions: Setaria faberi, pre-emergence, 312 h, evaluated after 13 days; for pest or weed control at 15.625 g/ha: 15.625 g ai/ha; for pest or weed control at 15.625 g/ha / pest or weed control at 250 g/ha: read-out: Foxtail, Giant damage rating (100=total damage to plant; 0=no damage to plant); for pest or weed control at 62.5 g/ha: 62.5 g ai/ha, 100=total damage to plant, 0=no damage to plant, read-out: plant damage rating, Foxtail, Giant; for pest or weed control at 250 g/ha: 250 g ai/ha
Outline: (§1)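 Under a 24/16° C day/night regime with 14 h light and 65% humidity, sown pots were sprayed after one day with compound (15.625, 62.5 or 250 g/ha; 50:50 acetone/water, 0.5% Tween 20). Damage was assessed visually 13 days later, 0 to 100.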

[2] = test system: barnyardgrass (Echinochloa crus-galli); assay: Test G Pre-Emergence Protocol; conditions: Echinochloa crus-galli, pre-emergence, 312 h, evaluated after 13 days; for pest or weed control at 15.625 g/ha: 15.625 g ai/ha, read-out: Barnyard grass damage rating (100=total damage to plant; 0=no damage to plant); for pest or weed control at 62.5 g/ha: 62.5 g ai/ha, 100=total damage to plant, 0=no damage to plant, read-out: plant damage rating, Barnyardgrass; for pest or weed control at 250 g/ha: 250 g ai/ha, read-out: Barnyardgrass damage rating (100=total damage to plant; 0=no damage to plant)
Outline: as §1

[3] = test system: ivy-leaved morning glory (Ipomoea hederacea); assay: Test G Pre-Emergence Protocol; conditions: Ipomoea, pre-emergence, 312 h, evaluated after 13 days; for pest or weed control at 15.625 g/ha: 15.625 g ai/ha, read-out: Morning-glory, Ivy-leaved damage rating (100=total damage to plant; 0=no damage to plant); for pest or weed control at 62.5 g/ha: 62.5 g ai/ha, 100=total damage to plant, 0=no damage to plant, read-out: plant damage rating, Morningglory, Ivy-leaved; for pest or weed control at 250 g/ha: 250 g ai/ha, read-out: Morningglory, Ivy-leaved damage rating (100=total damage to plant; 0=no damage to plant)
Outline: as §1

[4] = test system: velvetleaf (Abutilon theophrasti); assay: Test G Pre-Emergence Protocol; conditions: Abutilon theophrasti, pre-emergence, 312 h, evaluated after 13 days; for pest or weed control at 15.625 g/ha: 15.625 g ai/ha; for pest or weed control at 15.625 g/ha / pest or weed control at 250 g/ha: read-out: Velvetleaf damage rating (100=total damage to plant; 0=no damage to plant); for pest or weed control at 62.5 g/ha: 62.5 g ai/ha, 100=total damage to plant, 0=no damage to plant, read-out: plant damage rating, Velvetleaf; for pest or weed control at 250 g/ha: 250 g ai/ha
Outline: as §1

[5] = test system: redroot pigweed (Amaranthus retroflexus); assay: Test G Pre-Emergence Protocol; conditions: Amaranthus retroflexus, pre-emergence, 312 h, evaluated after 13 days; for pest or weed control at 15.625 g/ha: 15.625 g ai/ha; for pest or weed control at 15.625 g/ha / pest or weed control at 250 g/ha: read-out: Pigweed, Redroot damage rating (100=total damage to plant; 0=no damage to plant); for pest or weed control at 62.5 g/ha: 62.5 g ai/ha, 100=total damage to plant, 0=no damage to plant, read-out: plant damage rating, Pigweed, Redroot; for pest or weed control at 250 g/ha: 250 g ai/ha
Outline: as §1

corn (Zea mays) [6] = assay: Test G Pre-Emergence Protocol; conditions: Zea mays, pre-emergence, 312 h, evaluated after 13 days; for plant injury at 15.625 g/ha: 15.625 g ai/ha; for plant injury at 15.625 g/ha / plant injury at 250 g/ha: read-out: Corn damage rating (100=total damage to plant; 0=no damage to plant); for plant injury at 62.5 g/ha: 62.5 g ai/ha, 100=total damage to plant, 0=no damage to plant, read-out: plant damage rating, Corn; for plant injury at 250 g/ha: 250 g ai/ha
Outline: as §1

[7] = test system: giant foxtail (Setaria faberi); assay: Test G Post-Emergence Protocol; conditions: Setaria faberi, post-emergence, 312 h; for pest or weed control at 15.625 g/ha: 15.625 g ai/ha, evaluated after 13 days (100=total damage to plant; 0=no damage to plant), read-out: Foxtail, Giant damage rating; for pest or weed control at 62.5 g/ha: 62.5 g ai/ha, read-out: Foxtail, Giant damage rating (100=total damage to plant; 0=no damage to plant); for pest or weed control at 62.5 g/ha / pest or weed control at 250 g/ha: evaluated after 13 days; for pest or weed control at 250 g/ha: 250 g ai/ha, read-out: damage to plant, Foxtail, Giant (100=total damage to plant; 0=no damage to plant)
Outline: (§2)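 Foliar application was made 8 days after sowing, using an aqueous spray of the active in acetone/water (50:50) with 0.5% Tween 20, at doses of 15.625, 62.5 or 250 g/ha. Injury was assessed 13 days later, where 100 meant the plant was fully damaged.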

[8] = test system: barnyardgrass (Echinochloa crus-galli); assay: Test G Post-Emergence Protocol; conditions: Echinochloa crus-galli, post-emergence, 312 h; for pest or weed control at 15.625 g/ha: 15.625 g ai/ha, evaluated after 13 days (100=total damage to plant; 0=no damage to plant), read-out: Barnyardgrass damage rating; for pest or weed control at 62.5 g/ha: 62.5 g ai/ha, read-out: Barnyardgrass damage rating (100=total damage to plant; 0=no damage to plant); for pest or weed control at 62.5 g/ha / pest or weed control at 250 g/ha: evaluated after 13 days; for pest or weed control at 250 g/ha: 250 g ai/ha, read-out: damage to plant, Barnyardgrass (100=total damage to plant; 0=no damage to plant)
Outline: as §2

[9] = test system: ivy-leaved morning glory (Ipomoea hederacea); assay: Test G Post-Emergence Protocol; conditions: Ipomoea, post-emergence, 312 h; for pest or weed control at 15.625 g/ha: 15.625 g ai/ha, evaluated after 13 days (100=total damage to plant; 0=no damage to plant), read-out: Morningglory, Ivy-leaved damage rating; for pest or weed control at 62.5 g/ha: 62.5 g ai/ha, read-out: Morningglory, Ivy-leaved damage rating (100=total damage to plant; 0=no damage to plant); for pest or weed control at 62.5 g/ha / pest or weed control at 250 g/ha: evaluated after 13 days; for pest or weed control at 250 g/ha: 250 g ai/ha, read-out: damage to plant, Morningglory, Ivy-leaved (100=total damage to plant; 0=no damage to plant)
Outline: as §2

[10] = test system: velvetleaf (Abutilon theophrasti); assay: Test G Post-Emergence Protocol; conditions: Abutilon theophrasti, post-emergence, 312 h; for pest or weed control at 15.625 g/ha: 15.625 g ai/ha, evaluated after 13 days (100=total damage to plant; 0=no damage to plant), read-out: Velvetleaf damage rating; for pest or weed control at 62.5 g/ha: 62.5 g ai/ha, read-out: Velvetleaf damage rating (100=total damage to plant; 0=no damage to plant); for pest or weed control at 62.5 g/ha / pest or weed control at 250 g/ha: evaluated after 13 days; for pest or weed control at 250 g/ha: 250 g ai/ha, read-out: damage to plant, Velvetleaf (100=total damage to plant; 0=no damage to plant)
Outline: as §2

[11] = test system: redroot pigweed (Amaranthus retroflexus); assay: Test G Post-Emergence Protocol; conditions: Amaranthus retroflexus, post-emergence, 312 h; for pest or weed control at 15.625 g/ha: 15.625 g ai/ha, evaluated after 13 days (100=total damage to plant; 0=no damage to plant), read-out: Pigweed, Redroot damage rating; for pest or weed control at 62.5 g/ha: 62.5 g ai/ha, read-out: Pigweed, Redroot damage rating (100=total damage to plant; 0=no damage to plant); for pest or weed control at 62.5 g/ha / pest or weed control at 250 g/ha: evaluated after 13 days; for pest or weed control at 250 g/ha: 250 g ai/ha, read-out: damage to plant, Pigweed, Redroot (100=total damage to plant; 0=no damage to plant)
Outline: as §2

corn (Zea mays) [12] = assay: Test G Post-Emergence Protocol; conditions: Zea mays, post-emergence, 312 h; for plant injury at 15.625 g/ha: 15.625 g ai/ha, evaluated after 13 days (100=total damage to plant; 0=no damage to plant), read-out: Corn damage rating; for plant injury at 62.5 g/ha: 62.5 g ai/ha, read-out: Corn damage rating (100=total damage to plant; 0=no damage to plant); for plant injury at 62.5 g/ha / plant injury at 250 g/ha: evaluated after 13 days; for plant injury at 250 g/ha: 250 g ai/ha, read-out: damage to plant, Corn (100=total damage to plant; 0=no damage to plant)
Outline: as §2

Row | SMILES | pest or weed control at 15.625 g/ha [1] | pest or weed control at 62.5 g/ha [1] | pest or weed control at 250 g/ha [1] | pest or weed control at 15.625 g/ha [2] | pest or weed control at 62.5 g/ha [2] | pest or weed control at 250 g/ha [2] | pest or weed control at 15.625 g/ha [3] | pest or weed control at 62.5 g/ha [3] | pest or weed control at 250 g/ha [3] | pest or weed control at 15.625 g/ha [4] | pest or weed control at 62.5 g/ha [4] | pest or weed control at 250 g/ha [4] | pest or weed control at 15.625 g/ha [5] | pest or weed control at 62.5 g/ha [5] | pest or weed control at 250 g/ha [5] | plant injury at 15.625 g/ha (corn (Zea mays) [6]) | plant injury at 62.5 g/ha (corn (Zea mays) [6]) | plant injury at 250 g/ha (corn (Zea mays) [6]) | pest or weed control at 15.625 g/ha [7] | pest or weed control at 62.5 g/ha [7] | other results
1 | Cc1ccc([C@@H]2CN(C)C(=O)[C@H]2C(=O)Nc2cccc(F)c2F)cc1Cl (racemic) [Compound 1475] | 70% | 80% | 90% | 10% | 70% | 80% | 0% | 0% | 10% | 0% | 0% | 0% | 0% | 0% | 0% | 0% | 30% | 50% | 70% | 70% | pest or weed control at 250 g/ha [7]: 70%; pest or weed control at 15.625 g/ha [8]: 30%; pest or weed control at 62.5 g/ha [8]: 60%; pest or weed control at 250 g/ha [8]: 50%; pest or weed control at 15.625 g/ha [9]: 20%; pest or weed control at 62.5 g/ha [9]: 0%; pest or weed control at 250 g/ha [9]: 70%; pest or weed control at 15.625 g/ha [10]: 10%; pest or weed control at 62.5 g/ha [10]: 10%; pest or weed control at 250 g/ha [10]: 10%; pest or weed control at 15.625 g/ha [11]: 10%; pest or weed control at 62.5 g/ha [11]: 30%; pest or weed control at 250 g/ha [11]: 50%; plant injury at 15.625 g/ha (corn (Zea mays) [12]): 30%; plant injury at 62.5 g/ha (corn (Zea mays) [12]): 40%; plant injury at 250 g/ha (corn (Zea mays) [12]): 70%
2 | COc1c(Cl)ccc([C@H]2CN(C)C(=O)[C@@H]2C(=O)Nc2cccc(F)n2)c1F (racemic) [Compound 1477] | 60% | 80% | 90% | 50% | 60% | 80% | 0% | 0% | 0% | 0% | 0% | 0% | 0% | 0% | 0% | 20% | 40% | 50% | 50% | 60% | pest or weed control at 250 g/ha [7]: 70%; pest or weed control at 15.625 g/ha [8]: 50%; pest or weed control at 62.5 g/ha [8]: 60%; pest or weed control at 250 g/ha [8]: 60%; pest or weed control at 15.625 g/ha [9]: 0%; pest or weed control at 62.5 g/ha [9]: 0%; pest or weed control at 250 g/ha [9]: 0%; pest or weed control at 15.625 g/ha [10]: 0%; pest or weed control at 62.5 g/ha [10]: 20%; pest or weed control at 250 g/ha [10]: 20%; pest or weed control at 15.625 g/ha [11]: 0%; pest or weed control at 62.5 g/ha [11]: 0%; pest or weed control at 250 g/ha [11]: 30%; plant injury at 15.625 g/ha (corn (Zea mays) [12]): 30%; plant injury at 62.5 g/ha (corn (Zea mays) [12]): 60%; plant injury at 250 g/ha (corn (Zea mays) [12]): 50%
3 | CN1C[C@@H](c2cncc(F)c2)[C@H](C(=O)Nc2cccc(F)c2F)C1=O (racemic) [Compound 1482] | 20% | 60% | 90% | 10% | 30% | 80% | 0% | 0% | 10% | 0% | 0% | 10% | 0% | 0% | 10% | 30% | 40% | 30% | 30% | 30% | pest or weed control at 250 g/ha [7]: 60%; pest or weed control at 15.625 g/ha [8]: 30%; pest or weed control at 62.5 g/ha [8]: 30%; pest or weed control at 250 g/ha [8]: 60%; pest or weed control at 15.625 g/ha [9]: 0%; pest or weed control at 62.5 g/ha [9]: 0%; pest or weed control at 250 g/ha [9]: 0%; pest or weed control at 15.625 g/ha [10]: 0%; pest or weed control at 62.5 g/ha [10]: 0%; pest or weed control at 250 g/ha [10]: 10%; pest or weed control at 15.625 g/ha [11]: 0%; pest or weed control at 62.5 g/ha [11]: 0%; pest or weed control at 250 g/ha [11]: 0%; plant injury at 15.625 g/ha (corn (Zea mays) [12]): 20%; plant injury at 62.5 g/ha (corn (Zea mays) [12]): 30%; plant injury at 250 g/ha (corn (Zea mays) [12]): 30%
